Measured values taken from PubChem BioAssay AID2060487 (Molecular Pharmacology Branch, DTP, NCI, 2025).

Test system: 997537-175-T-J1-PDC complex spheroid viability
Assay: Anticancer human tumor 997537-175-T-J1-PDC patient-derived colon adenocarcinoma cell line growth inhibition [GQUAD]
Conditions: for IC50: curve of first compound; for viability, T/C: stronger effect = lower value; active = viability on the fitted dose curve at most 10% of control; inactive = the rest
Procedure, shortened: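 Multi-cell-type spheroids of tumor cells with HUVEC and mesenchymal stem cells, treated with drug combinations. Concentrations descend in half-log steps from near clinical Cmax, or from 10 microM where Cmax is unknown; viability read-out.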

[1] = second compound 0.0316 µM, first compound 0.0316 µM
[2] = second compound 0.0316 µM, first compound 0.1 µM
[3] = second compound 0.0316 µM, first compound 0.316 µM
[4] = second compound 0.0316 µM, first compound 1 µM
[5] = second compound 0.0316 µM, first compound 3.16 µM
[6] = second compound 0.0316 µM, first compound 10 µM
[7] = second compound 0.1 µM, first compound 0.0316 µM
[8] = second compound 0.1 µM, first compound 0.1 µM
[9] = second compound 0.1 µM, first compound 0.316 µM
[10] = second compound 0.1 µM, first compound 1 µM
[11] = second compound 0.1 µM, first compound 3.16 µM
[12] = second compound 0.1 µM, first compound 10 µM
[13] = second compound 0.316 µM, first compound 0.0316 µM
[14] = second compound 0.316 µM, first compound 0.1 µM
[15] = second compound 0.316 µM, first compound 0.316 µM
[16] = second compound 0.316 µM, first compound 1 µM
[17] = second compound 0.316 µM, first compound 3.16 µM
[18] = second compound 0.316 µM, first compound 10 µM
[19] = second compound 1 µM, first compound 0.0316 µM
[20] = second compound 1 µM, first compound 0.1 µM
[21] = second compound 1 µM, first compound 0.316 µM
[22] = second compound 1 µM, first compound 1 µM
[23] = second compound 1 µM, first compound 3.16 µM
[24] = second compound 1 µM, first compound 10 µM
[25] = second compound 3.16 µM, first compound 0.0316 µM
[26] = second compound 3.16 µM, first compound 0.1 µM
[27] = second compound 3.16 µM, first compound 0.316 µM
[28] = second compound 3.16 µM, first compound 1 µM
[29] = second compound 3.16 µM, first compound 3.16 µM
[30] = second compound 3.16 µM, first compound 10 µM
[31] = second compound 10 µM, first compound 0.0316 µM
[32] = second compound 10 µM, first compound 0.1 µM
[33] = second compound 10 µM, first compound 0.316 µM
[34] = second compound 10 µM, first compound 1 µM
[35] = second compound 10 µM, first compound 3.16 µM
[36] = second compound 10 µM, first compound 10 µM
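Also: spheroids exposed to the agents for 7 days.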
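For viability, T/C in this document: 100% = DMSO vehicle control viability.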

Cc1cccc(N(C)C(=O)C2C(O)CCN2c2nc(C)cc(C(F)(F)F)c2C#N)c1 (stereo unspecified) + CN(C)c1ccc(Nc2c3ccc(NC(=O)CCN4CCCC4)cc3nc3cc(NC(=O)CCN4CCCC4)ccc23)cc1
inactive: viability, T/C [1] 97.8% | viability, T/C [2] 101% | viability, T/C [3] 101% | viability, T/C [4] 80.2% | viability, T/C [5] 85.4% | viability, T/C [6] 105% | viability, T/C [7] 91.5% | viability, T/C [8] 85.9% | viability, T/C [9] 87.7% | viability, T/C [10] 70.3% | viability, T/C [11] 103% | viability, T/C [12] 89.7% | viability, T/C [13] 83.8% | viability, T/C [14] 85.7% | viability, T/C [15] 81.4% | viability, T/C [16] 77.7% | viability, T/C [17] 89.2% | viability, T/C [18] 104% | viability, T/C [19] 84.9% | viability, T/C [20] 61.3% | viability, T/C [21] 83.2% | viability, T/C [22] 81.2% | viability, T/C [23] 104% | viability, T/C [24] 85.3% | viability, T/C [25] 61.4% | viability, T/C [26] 91.3% | viability, T/C [27] 77% | viability, T/C [28] 93.8% | viability, T/C [29] 103% | viability, T/C [30] 103% | viability, T/C [31] 72.5% | viability, T/C [32] 83.9% | viability, T/C [33] 106% | viability, T/C [34] 88.9% | viability, T/C [35] 106% | viability, T/C [36] 103%
> 10 µM: IC50 (second compound 0.0316 µM) | IC50 (second compound 0.1 µM) | IC50 (second compound 0.316 µM) | IC50 (second compound 1 µM) | IC50 (second compound 3.16 µM) | IC50 (second compound 10 µM)

CC1COCCN1c1cc(C2(S(C)(=N)=O)CC2)nc(-c2ccnc3[nH]ccc23)n1 (stereo unspecified) + Cc1[nH]c2ccc(F)cc2c1-c1nc2c3cccnc3c3ncccc3c2[nH]1
9.53 µM: IC50 (second compound 0.0316 µM)
6.25 µM: IC50 (second compound 0.1 µM)
> 10 µM: IC50 (second compound 0.316 µM) | IC50 (second compound 1 µM) | IC50 (second compound 10 µM)
inactive: viability, T/C [1] 96.7% | viability, T/C [2] 83.8% | viability, T/C [3] 76.3% | viability, T/C [4] 71.9% | viability, T/C [5] 62.9% | viability, T/C [6] 47.5% | viability, T/C [7] 95.8% | viability, T/C [8] 86.2% | viability, T/C [9] 82.4% | viability, T/C [10] 77.6% | viability, T/C [11] 70.3% | viability, T/C [12] 37.4% | viability, T/C [13] 107% | viability, T/C [14] 73.8% | viability, T/C [15] 69.7% | viability, T/C [16] 70% | viability, T/C [17] 62.3% | viability, T/C [18] 49.3% | viability, T/C [19] 80.3% | viability, T/C [20] 46.2% | viability, T/C [21] 76.8% | viability, T/C [22] 94% | viability, T/C [23] 72.5% | viability, T/C [24] 60.6% | viability, T/C [25] 59.7% | viability, T/C [26] 79.8% | viability, T/C [27] 66.1% | viability, T/C [28] 55.8% | viability, T/C [29] 71% | viability, T/C [30] 40.4% | viability, T/C [31] 63.7% | viability, T/C [32] 76.2% | viability, T/C [33] 72.2% | viability, T/C [34] 71.2% | viability, T/C [35] 64.5% | viability, T/C [36] 74.8%
6.51 µM: IC50 (second compound 3.16 µM)

CC1COCCN1c1cc(C2(O)CC3CCC(C2)O3)c2cnn(-c3ccn[nH]3)c2n1 (stereo unspecified) + Cc1cnc(CNC(=O)c2c(=O)c3ccc(N4CCCN(C)CC4)nc3n3c2sc2ccccc23)cn1
inactive: viability, T/C [1] 64% | viability, T/C [2] 52.9% | viability, T/C [3] 33.3% | viability, T/C [4] 38.8% | viability, T/C [5] 42.9% | viability, T/C [6] 44.8% | viability, T/C [7] 51.1% | viability, T/C [8] 49% | viability, T/C [9] 37.5% | viability, T/C [10] 27.6% | viability, T/C [11] 41.2% | viability, T/C [12] 58.5% | viability, T/C [13] 53% | viability, T/C [14] 52.3% | viability, T/C [15] 35.7% | viability, T/C [16] 57.1% | viability, T/C [17] 43% | viability, T/C [18] 43.4% | viability, T/C [19] 47.9% | viability, T/C [20] 42.6% | viability, T/C [21] 38.4% | viability, T/C [22] 42.9% | viability, T/C [23] 62.7% | viability, T/C [24] 28.6% | viability, T/C [25] 48.6% | viability, T/C [26] 56.9% | viability, T/C [27] 62.7% | viability, T/C [28] 41.8% | viability, T/C [29] 54.2% | viability, T/C [30] 53% | viability, T/C [31] 59.5% | viability, T/C [32] 63.1% | viability, T/C [33] 55.8% | viability, T/C [34] 53.9% | viability, T/C [35] 53.1% | viability, T/C [36] 42.4%
< 0.0316 µM: IC50 (second compound 0.1 µM) | IC50 (second compound 1 µM)
0.0848 µM: IC50 (second compound 0.0316 µM)
> 10 µM: IC50 (second compound 3.16 µM)
0.081 µM: IC50 (second compound 0.316 µM)
3.61 µM: IC50 (second compound 10 µM)
